This assay has as its target Papain (Carica papaya) (UniProt P00784). Briefly: Enzyme activities were calculated from kinetic measurements performed by spectrophotometric detection of the product p-nitroaniline (pNA) at wavelength of 405 nm. Progress curves were monitored over 10 min. Rate was determined for 7 different inhibitor concentrations in duplicate. The apparent inhibition constant, Ki (app) was determined by fitting.

Sequence of Papain (Carica papaya) (P00784 whole entry, looked up): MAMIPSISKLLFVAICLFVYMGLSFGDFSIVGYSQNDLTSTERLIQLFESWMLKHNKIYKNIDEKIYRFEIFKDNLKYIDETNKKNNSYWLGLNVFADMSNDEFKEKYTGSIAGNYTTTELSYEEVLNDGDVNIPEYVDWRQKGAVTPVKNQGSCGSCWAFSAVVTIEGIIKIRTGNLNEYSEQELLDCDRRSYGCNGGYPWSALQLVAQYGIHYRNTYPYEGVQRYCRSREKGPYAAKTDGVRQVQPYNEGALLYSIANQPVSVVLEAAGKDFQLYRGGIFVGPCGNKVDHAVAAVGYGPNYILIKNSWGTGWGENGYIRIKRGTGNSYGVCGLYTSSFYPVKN

In the case of `CC(C)(C)OC(=O)N[C@@H](Cc1ccsc1)C(=O)NCC#N` [tert-butyl N-[(1S)-1-[(cyanomethyl)carbamoyl]-2-(thiophen-3-yl)ethyl]carbamate], the Ki was 45 µM.
